Each structure is given as a SMILES string. Activity calls are given as the source filed them.

Drawing on ChEMBL document CHEMBL1201862, “PubChem BioAssay data set” (2004), this text covers EC50 and IC50 for one compound.

The target in one test is T1, Streptokinase A (Streptococcus pyogenes serotype M1, UniProt P10520).
T1 sequence (P10520 whole entry): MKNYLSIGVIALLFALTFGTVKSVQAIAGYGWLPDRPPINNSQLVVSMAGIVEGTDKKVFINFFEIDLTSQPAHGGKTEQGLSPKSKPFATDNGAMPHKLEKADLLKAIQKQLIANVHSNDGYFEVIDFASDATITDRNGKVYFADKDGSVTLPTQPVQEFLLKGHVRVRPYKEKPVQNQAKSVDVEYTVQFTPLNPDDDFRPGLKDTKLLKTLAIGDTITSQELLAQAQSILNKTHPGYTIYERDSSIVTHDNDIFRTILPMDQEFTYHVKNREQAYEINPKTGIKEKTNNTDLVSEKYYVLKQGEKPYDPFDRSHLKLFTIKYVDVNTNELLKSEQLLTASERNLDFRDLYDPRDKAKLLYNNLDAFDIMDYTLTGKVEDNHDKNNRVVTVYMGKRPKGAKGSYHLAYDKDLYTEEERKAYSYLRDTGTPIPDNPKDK
The test is described as follows: viability-normalized secreted streptokinase activity reduction – plasminogen activation absorbance, OD405, dose response (AID 1914).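 Also: secreted streptokinase activity via plasminogen activation per viability signal from cell pellet.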 In kind it is functional, Streptococcus pyogenes M1 GAS.

In test [1] the target is Glucose-6-phosphate 1-dehydrogenase (Homo sapiens, UniProt P11413). The test is described as follows: inhibition of Homo sapiens G6PD, dose series – biochemical, fluorescence, selectivity assay for P. falciparum G6PD inhibitor project, dose response (AID 504792). In kind it is functional.
A short description of test [2]: viability of HCT116 lacking mutant beta-catenin – cell-based, human colon tumor, dose response (AID 1045).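 Also: HCT116 colon tumor cells with beta catenin knocked out; cells exposed to compound for 60 hours.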 Format: functional.
The next test addresses T2, Protein RecA (Mycobacterium tuberculosis, UniProt P9WHJ3).
T2 sequence (P9WHJ3 whole entry): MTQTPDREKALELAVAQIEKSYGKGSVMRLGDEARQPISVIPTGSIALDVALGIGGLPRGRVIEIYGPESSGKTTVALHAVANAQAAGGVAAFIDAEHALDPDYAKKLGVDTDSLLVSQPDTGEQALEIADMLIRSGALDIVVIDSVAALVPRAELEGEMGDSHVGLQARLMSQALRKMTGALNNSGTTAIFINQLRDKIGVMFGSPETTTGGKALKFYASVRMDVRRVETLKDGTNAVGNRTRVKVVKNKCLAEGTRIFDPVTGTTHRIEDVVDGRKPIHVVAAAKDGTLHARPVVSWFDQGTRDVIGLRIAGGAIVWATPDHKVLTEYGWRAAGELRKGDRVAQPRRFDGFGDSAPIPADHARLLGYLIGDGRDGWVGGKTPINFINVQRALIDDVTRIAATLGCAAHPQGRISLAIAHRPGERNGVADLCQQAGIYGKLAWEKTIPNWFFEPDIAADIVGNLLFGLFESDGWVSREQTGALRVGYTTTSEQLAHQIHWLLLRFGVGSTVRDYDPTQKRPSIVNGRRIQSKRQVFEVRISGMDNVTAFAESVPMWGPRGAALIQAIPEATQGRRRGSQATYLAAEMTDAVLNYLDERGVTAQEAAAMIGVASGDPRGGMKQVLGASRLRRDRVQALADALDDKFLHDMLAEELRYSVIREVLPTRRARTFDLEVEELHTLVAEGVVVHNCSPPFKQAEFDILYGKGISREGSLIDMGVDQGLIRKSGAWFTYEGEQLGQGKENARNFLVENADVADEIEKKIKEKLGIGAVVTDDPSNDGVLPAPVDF
In words: Fluorescence Cell-Free Homogeneous Dose Retest to Identify Inhibitors of RecA-Intein Splicing Activity. [Related pubchem assays (depositor defined):AID2097, AID2223, AID489010, AID492950]. Format: functional.

Chain of Glucose-6-phosphate 1-dehydrogenase (P11413 whole entry): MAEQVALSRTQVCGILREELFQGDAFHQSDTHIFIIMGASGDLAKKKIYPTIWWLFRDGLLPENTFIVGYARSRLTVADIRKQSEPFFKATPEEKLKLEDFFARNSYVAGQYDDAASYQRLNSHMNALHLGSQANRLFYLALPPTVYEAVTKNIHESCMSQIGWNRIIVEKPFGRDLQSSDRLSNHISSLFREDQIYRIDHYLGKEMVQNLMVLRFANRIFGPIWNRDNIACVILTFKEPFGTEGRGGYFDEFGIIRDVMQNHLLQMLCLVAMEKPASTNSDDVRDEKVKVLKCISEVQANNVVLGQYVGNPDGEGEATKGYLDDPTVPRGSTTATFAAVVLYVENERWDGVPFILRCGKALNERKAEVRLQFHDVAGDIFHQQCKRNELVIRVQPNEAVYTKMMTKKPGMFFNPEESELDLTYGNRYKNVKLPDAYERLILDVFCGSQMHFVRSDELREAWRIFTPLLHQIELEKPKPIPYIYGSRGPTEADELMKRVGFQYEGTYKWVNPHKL

On to `COc1ccc(C(=O)c2c(C(F)(F)F)oc3c2C(=O)c2ccccc2C3=O)cc1`, for which the EC50 was > 150 µM (not active) on Streptokinase A, 2.55 µM (active) in test [2] and 0.0825 µM (active) on Protein RecA. The IC50 in test [1] is > 80 µM (inactive).

The EC50 is the concentration that produces a half-maximal response. One may read the IC50 as the midpoint of a concentration-inhibition curve.
